From patent US10280149B2, “Therapeutic compounds and uses thereof” (GENENTECH, INC., priority 2015, dated 2019)

Molecular target: Full length KDM2B (Homo sapiens (Human), UniProt Q8NHM5)
Experiment: KDM2B TR-FRET assay for determining inhibitor IC50
Type: biochemical
Conditions: TR-FRET (HTRF), biotin-H3K36me2 peptide substrate, 2-OG 0.3 μM or 6 μM
Description: KDM2B TR-FRET Assay for Determining Inhibitor IC50
The KDM2B TR-FRET Assay described above represents an additional embodiment of the invention.

Full length KDM2B, sequence (Q8NHM5 whole entry): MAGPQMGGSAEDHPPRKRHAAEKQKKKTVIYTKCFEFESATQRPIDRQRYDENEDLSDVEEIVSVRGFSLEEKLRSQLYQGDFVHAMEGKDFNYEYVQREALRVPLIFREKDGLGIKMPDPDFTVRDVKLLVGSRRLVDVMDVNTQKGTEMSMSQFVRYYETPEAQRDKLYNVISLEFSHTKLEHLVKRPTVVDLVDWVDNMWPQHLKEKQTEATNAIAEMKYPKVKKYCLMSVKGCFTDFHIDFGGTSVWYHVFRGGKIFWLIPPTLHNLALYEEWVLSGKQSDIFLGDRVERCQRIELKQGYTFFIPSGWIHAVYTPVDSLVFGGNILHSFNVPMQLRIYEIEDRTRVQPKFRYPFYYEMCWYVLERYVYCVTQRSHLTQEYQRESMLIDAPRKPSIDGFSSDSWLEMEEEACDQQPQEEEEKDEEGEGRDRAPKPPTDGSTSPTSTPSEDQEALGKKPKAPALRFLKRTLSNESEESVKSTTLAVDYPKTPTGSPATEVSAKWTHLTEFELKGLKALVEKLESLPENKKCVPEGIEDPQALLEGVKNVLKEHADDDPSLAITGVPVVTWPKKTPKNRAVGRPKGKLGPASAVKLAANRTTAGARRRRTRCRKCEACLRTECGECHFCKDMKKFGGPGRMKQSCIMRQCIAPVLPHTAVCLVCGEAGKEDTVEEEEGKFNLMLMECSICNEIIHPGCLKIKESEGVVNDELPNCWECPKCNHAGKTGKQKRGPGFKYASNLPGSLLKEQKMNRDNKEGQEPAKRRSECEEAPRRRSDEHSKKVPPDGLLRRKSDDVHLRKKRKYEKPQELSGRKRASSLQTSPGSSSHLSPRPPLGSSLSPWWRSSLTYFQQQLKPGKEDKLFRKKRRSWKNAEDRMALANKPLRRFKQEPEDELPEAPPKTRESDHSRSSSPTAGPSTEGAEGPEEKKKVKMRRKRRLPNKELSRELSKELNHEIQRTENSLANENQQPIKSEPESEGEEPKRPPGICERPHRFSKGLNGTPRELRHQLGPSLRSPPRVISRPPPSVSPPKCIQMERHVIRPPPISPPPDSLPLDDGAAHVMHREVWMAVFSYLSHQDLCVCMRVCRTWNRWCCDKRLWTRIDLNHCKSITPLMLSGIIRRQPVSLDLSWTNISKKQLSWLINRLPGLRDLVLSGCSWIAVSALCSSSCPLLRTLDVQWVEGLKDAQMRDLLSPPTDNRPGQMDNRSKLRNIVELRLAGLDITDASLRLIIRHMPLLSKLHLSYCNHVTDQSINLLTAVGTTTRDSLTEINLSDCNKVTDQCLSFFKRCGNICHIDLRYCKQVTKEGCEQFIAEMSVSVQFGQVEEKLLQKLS

SMILES | IC50
CCCN1CCCC(C(=O)c2ccc(C(F)(F)F)cc2)C1 (centres unmarked) [Example 100, (1-propyl-3-piperidyl)-[4-(trifluoromethyl)phenyl]methanone] | 1200 nM
CCCN1CCCC(C(=O)c2ccc(Cl)c(Cl)c2)C1 (centres unmarked) [Example 101, (3,4-dichlorophenyl)-(1-propyl-3-piperidyl)methanone] | 279 nM
CCCN1CCCC(C(=O)c2ccccc2-c2ccccc2)C1 (centres unmarked) [Example 102, (2-phenylphenyl)-(1-propyl-3-piperidyl)methanone] | 5800 nM
CCCN1CCCC(C(=O)c2ccc(OC(F)(F)F)cc2)C1 (centres unmarked) [Example 103, (1-propyl-3-piperidyl)-[4-(trifluoromethoxy)phenyl]methanone] | 2000 nM
CCCN1CCCC(C(=O)c2ccc(OC)c(OC)c2)C1 (centres unmarked) [Example 104, (3,4-dimethoxyphenyl)-(1-propyl-3-piperidyl)methanone] | 744 nM
CCCN1CCCC(C(=O)c2cc(OC)cc(OC)c2)C1 (centres unmarked) [Example 105, (3,5-dimethoxyphenyl)-(1-propyl-3-piperidyl)methanone] | 272 nM
CCCN1CCCC(C(=O)c2ccc(C)c(C)c2)C1 (centres unmarked) [Example 106, (3,4-dimethylphenyl)-(1-propyl-3-piperidyl)methanone] | 247 nM
CCCN1CCCC(C(=O)c2ccc3c(c2)CCCC3)C1 (centres unmarked) [Example 107, (1-propyl-3-piperidyl)-tetralin-6-yl-methanone] | 99.8 nM
CCCN1CCCC(C(=O)c2ccc3c(c2)OCCO3)C1 (centres unmarked) [Example 108, 2,3-dihydro-1,4-benzodioxin-6-yl-(1-propyl-3-piperidyl)methanone] | 297 nM
O=C(c1ccc2c(Oc3ccccc3)cccc2c1)C1CCCN(CC2CC2)C1 (centres unmarked) [Example 112, (1-(cyclopropylmethyl)piperidin-3-yl)(5-phenoxynaphthalen-2-yl)methanone] | 175 nM
O=C(c1ccccc1Cl)C1CCCN(CC2CC2)C1 (centres unmarked) [Example 113, (2-chlorophenyl)(1-(cyclopropylmethyl)piperidin-3-yl)methanone] | 5400 nM
COc1cccc2cc(C(=O)C3CCCN(CC4CC4)C3)ccc12 (centres unmarked) [Example 114, (1-(cyclopropylmethyl)piperidin-3-yl)(5-methoxynaphthalen-2-yl)methanone] | 220 nM
Cc1c(C(=O)C2CCCN(CC3CC3)C2)ccc2ccccc12 (centres unmarked) [Example 115, (1-(cyclopropylmethyl)piperidin-3-yl)(1-methylnaphthalen-2-yl)methanone] | 439 nM
Cn1ccc2ccc(C(=O)C3CCCN(CC4CC4)C3)cc21 (centres unmarked) [Example 119, (1-(cyclopropylmethyl)piperidin-3-yl)(1-methyl-1H-indol-6-yl)methanone] | 2300 nM
O=C(c1cc2ccccc2s1)C1CCCN(CC2CC2)C1 (centres unmarked) [Example 120, Benzo[b]thiophen-2-yl(1-(cyclopropylmethyl)piperidin-3-yl)methanone] | 389 nM
COc1cc2ccc(C(=O)C3CCCN(CC4CC4)C3)cc2cn1 (centres unmarked) [Example 121, (1-(cyclopropylmethyl)piperidin-3-yl)(3-methoxyisoquinolin-7-yl)methanone] | 380 nM
COc1ccc2cc(C(=O)C3CCCN(CC4CC4)C3)ccc2n1 (centres unmarked) [Example 122, (1-(cyclopropylmethyl)piperidin-3-yl)(2-methoxyquinolin-6-yl)methanone] | 205 nM
O=C(c1ccc2c(OCc3ccccc3)cccc2c1)C1CCCN(CC2CC2)C1 (centres unmarked) [Example 123, (5-(benzyloxy)naphthalen-2-yl)(1-(cyclopropylmethyl)piperidin-3-yl)methanone] | 90.9 nM
O=C(c1cnn(-c2ccccc2)c1)C1CCCN(CC2CC2)C1 (centres unmarked) [Example 124, (1-(cyclopropylmethyl)piperidin-3-yl)(1-phenyl-1H-pyrazol-4-yl)methanone] | 656 nM
O=C(c1cnc2ccccc2c1)C1CCCN(CC2CC2)C1 (centres unmarked) [Example 125, (1-(cyclopropylmethyl)piperidin-3-yl)(quinolin-3-yl)methanone] | 489 nM
